Consider 50 compounds from patent US9346761B2, “Arginine methyltransferase inhibitors and uses thereof” (Epizyme, Inc., priority 2013, dated 2016).

The test deals with T1, Full-length human PRMT1 isoform 1 (Homo sapiens, UniProt Q99873).
T1 construct: GST-tagged PRMT1; made in house; host or cells: High Five insect cells (baculovirus, pFastBacI)
T1 sequence (Q99873 with tags, fused parts or gaps): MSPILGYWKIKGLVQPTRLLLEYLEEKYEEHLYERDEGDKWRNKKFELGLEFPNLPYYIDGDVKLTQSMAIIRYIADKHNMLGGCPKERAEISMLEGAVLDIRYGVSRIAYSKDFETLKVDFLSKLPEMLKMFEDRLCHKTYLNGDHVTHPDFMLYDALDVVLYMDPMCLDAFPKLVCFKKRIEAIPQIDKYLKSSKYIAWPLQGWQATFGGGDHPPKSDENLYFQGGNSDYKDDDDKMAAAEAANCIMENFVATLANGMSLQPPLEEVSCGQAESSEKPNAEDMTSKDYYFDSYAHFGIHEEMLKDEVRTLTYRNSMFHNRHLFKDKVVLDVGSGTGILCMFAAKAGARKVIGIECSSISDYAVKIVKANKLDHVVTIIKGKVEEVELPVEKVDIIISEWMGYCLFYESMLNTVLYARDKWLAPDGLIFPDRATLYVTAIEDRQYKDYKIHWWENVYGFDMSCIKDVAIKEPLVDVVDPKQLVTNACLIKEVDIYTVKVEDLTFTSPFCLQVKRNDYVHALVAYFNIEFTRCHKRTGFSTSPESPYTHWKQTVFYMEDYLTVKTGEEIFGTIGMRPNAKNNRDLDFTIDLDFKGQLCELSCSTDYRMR
The test is described as follows: PRMT1 biochemical assay (3H-SAM Flashplate, peptide substrate). The essentials:
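GST-tagged full-length PRMT1 from baculovirus-infected cells, preincubated 30 min at room temperature with compound in 20 mM Bicine pH 7.6, TCEP, BSG, Tween 20. Reaction started with 3H-SAM plus biotinylated peptide, stopped with 300 uM unlabelled SAM. Streptavidin Flashplate capture and scintillation counting; % inhibition curve-fitted for IC50.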
Regarding `CNCCN(C)Cc1c[nH]nc1-c1ccc(F)c(F)c1` [Compound 51], the IC50 is < 100 nM.

As for `CN(CCN)Cc1c[nH]nc1-c1ccc(OC(F)(F)F)cc1` [Compound 93], the IC50 was < 100 nM.

In the case of `CN(CCN)Cc1cnn(C2COC2)c1-c1ccc(F)cc1` [Compound 81], the IC50 was in the range of 101 to 1000 nM.

Regarding `Cc1ccc(Cl)c(-c2n[nH]cc2CN(C)CCN)c1` [Compound 91], the IC50 lay in the range of 101 to 1000 nM.

The compound `COc1ccc(-c2n[nH]cc2CN(C)CCN)c(OC)c1` [Compound 87] had an IC50 of 101 to 1000 nM.

As to `CNCCN(C)Cc1c[nH]nc1-c1ccc(F)cc1` [Compound 2, N^1-((3-(4-fluorophenyl)-1H-pyrazol-4-yl)methyl)-N^1,N^2-dimethylethane-1,2-diamine], the IC50 is < 100 nM.

On to `CN(CCN)Cc1c(-c2ccc(C#N)cc2)cnn1C` [Compound 84], for which the IC50 is > 10000 nM.

Turning to `CCCN(CCN)Cc1c[nH]nc1-c1ccc(F)cc1` [Compound 63], the IC50 was 1010 to 3000 nM.

`CN(CCN)Cc1cnn(C)c1-c1ccc(F)cc1` [Compound 4] registered an IC50 of 101 to 1000 nM.

Turning to `CN(CCN)Cc1cn(C)nc1-c1ccc(F)cc1` [Compound 3], the IC50 was < 100 nM.

`CCNCCN(C)Cc1c[nH]nc1-c1ccc(F)cc1` [Compound 60] came in with an IC50 of 101 to 1000 nM.

As for `CN(CCN)Cc1c[nH]nc1-c1ccc(C#N)cc1` [Compound 68], the IC50 was < 100 nM.

With `CN(CCN)Cc1cn(CC2COC2)nc1-c1ccc(F)cc1` [Compound 79], the IC50 is > 10000 nM.

For the compound `CN(CCN)Cc1c[nH]nc1-c1ccc(N2CCNCC2)cc1` [Compound 82], the IC50 was < 100 nM.

Consider `CNCCN(C)Cc1c[nH]nc1-c1ccccc1-c1ccccc1` [Compound 46], for which the IC50 lay in the range of 1010 to 3000 nM.

Take `CN(CCN)Cc1nn(C)cc1-c1ccc(C#N)cc1` [Compound 83]: the IC50 is < 100 nM.

As for `CN(CCN)Cc1c[nH]nc1-c1ccc(Cl)cc1Cl` [Compound 86], the IC50 is < 100 nM.

`CC(C)N(CCN)Cc1c[nH]nc1-c1ccc(F)cc1` [Compound 75]: the IC50 was in the range of 101 to 1000 nM.

Consider `CNCCN(C)Cc1c[nH]nc1-c1ccc(OC)c(F)c1` [Compound 52], for which the IC50 is < 100 nM.

`COCCn1cc(CN(C)CCN(C)C)c(-c2ccc(F)cc2)n1` [Compound 61]: the IC50 was > 10000 nM.

Compound `CN(CCN)Cc1cn(C2COC2)nc1-c1ccc(F)cc1` [Compound 77] had an IC50 of 101 to 1000 nM.

In turn, `CN(CCN)Cc1c[nH]nc1-c1cccc(C#N)c1` [Compound 70] showed an IC50 of 101 to 1000 nM.

In turn, `CN(CCN)Cc1cn(CC(O)CO)nc1-c1ccc(F)cc1` (centres unmarked) [Compound 76] came in with an IC50 of 3010 to 10000 nM.

Regarding `CN(CCN)Cc1cn(CCO)nc1-c1ccc(F)cc1` [Compound 66], the IC50 lay within 1010 to 3000 nM.

`CN(CCN)Cc1cnn(CCO)c1-c1ccc(F)cc1` [Compound 65] yielded an IC50 of 1010 to 3000 nM.

In turn, `Cc1ccc(-c2n[nH]cc2CN(C)CCN)c(C)c1` [Compound 88] registered an IC50 of 101 to 1000 nM.

For the compound `CN(CCN)Cc1c[nH]nc1-c1ccc(C(C)(C)C)cc1` [Compound 74], the half-inhibitory concentration (IC50) was < 100 nM.

`CN(CCN)Cc1c[nH]nc1-c1cccc(F)c1` [Compound 71]: the IC50 was < 100 nM.

For `CN(CCN)Cc1c[nH]nc1-c1ccccc1F` [Compound 72], the IC50 lay in the range of 101 to 1000 nM.

`CNCCN(C)Cc1c[nH]nc1-c1c(OC)cccc1OC` [Compound 56] returned an IC50 of 3010 to 10000 nM.

Turning to `CN(CCN)Cc1c[nH]nc1-c1ccc(OC(F)F)cc1` [Compound 94], the IC50 was < 100 nM.

Consider `CCN(CCN)Cc1c[nH]nc1-c1ccc(F)cc1` [Compound 62], for which the IC50 is < 100 nM.

With `CN(CCN)Cc1cnn(CC2COC2)c1-c1ccc(F)cc1` [Compound 80], the IC50 was > 10000 nM.

With `CNCCN(C)Cc1c[nH]nc1-c1cccc2ccccc12` [Compound 57], the IC50 was < 100 nM.

`CNCCN(C)Cc1c[nH]nc1-c1ccc(F)cc1F` [Compound 49]: the IC50 was in the range of 101 to 1000 nM.

The compound `CNCCN(C)Cc1c[nH]nc1-c1cc(Cl)ccc1OC` [Compound 53] returned an IC50 of 3010 to 10000 nM.

`CN(CCN)Cc1c[nH]nc1-c1ccccc1` [Compound 73] yielded an IC50 of 101 to 1000 nM.

In the case of `Cc1ccc(-c2n[nH]cc2CN(C)CCN)c(Cl)c1` [Compound 90], the IC50 is < 100 nM.

For `COCCn1ncc(CN(C)CCN(C)C)c1-c1ccc(F)cc1` [Compound 64], the IC50 was > 10000 nM.

As to `CNCCN(C)Cc1c[nH]nc1-c1cc(F)ccc1F` [Compound 50], the IC50 was 101 to 1000 nM.

As for `CNCCN(C)Cc1c[nH]nc1-c1cccc(OC)c1OC` [Compound 54], the IC50 lay within 101 to 1000 nM.

As to `CN(CCN)Cc1c[nH]nc1-c1ccc(F)cc1Cl` [Compound 89], the IC50 is < 100 nM.

In the case of `CN(CCN)Cc1c[nH]nc1-c1ccc(C(F)(F)F)cc1C(F)(F)F` [Compound 85], the IC50 is 101 to 1000 nM.

As for `CNCCN(C)Cc1cn(CCC(O)CO)nc1-c1ccc(F)cc1` (centres unmarked) [Compound 59], the IC50 fell in the range of 3010 to 10000 nM.

In the case of `CN(CCN)Cc1c[nH]nc1-c1ccc(C(F)(F)F)cc1` [Compound 92], the IC50 was < 100 nM.

Regarding `CN(CCN)Cc1n[nH]cc1-c1ccc(F)cc1` [Compound 69], the IC50 is < 100 nM.

With `CNCCN(C)Cc1c[nH]nc1-c1ccc(C(=O)c2ccccc2)cc1` [Compound 45], the IC50 was < 100 nM.

Compound `NCCN(Cc1c[nH]nc1-c1ccc(F)cc1)C1CC1` [Compound 78] displayed an IC50 of 101 to 1000 nM.

Take `CNCCN(C)Cc1c[nH]nc1-c1ccc2ccccc2c1` [Compound 58]: the IC50 is < 100 nM.

Consider `CNCCN(C)Cc1c[nH]nc1-c1ccc(OC)cc1OC` [Compound 55], for which the IC50 lay in the range of 101 to 1000 nM.

As usually defined, the IC50 is the concentration needed to halve the response being measured. The low end stands for higher potency, the high end for lower potency.
